Laboratory results: the supplement of paper PMC11061612

Legend:
Test in all cases: Bliss excess, mean over the matrix (fraction); higher = more synergy
[1] = system: 8505C (Thyroid Gland Carcinoma)
How it was run: (§1)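 Cell lines grown in DMEM/F12 or RPMI with 10% FBS were plated in 1536-well plates and held 24 hours at 37°C, 5% CO2 before 72 hours of exposure to two-drug dose matrices, with DMSO typically at 0.2%. CellTiter-Glo 2.0 luminescence gave viability, which was converted to inhibition. Vehicle wells were set to 0 and blank wells to 1. Combination Emax is the second-highest inhibition in the matrix, and Bliss excess is the observed combination effect minus the expected EA + EB − EA·EB, where EA and EB are the single-agent effects.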

[2] = system: CHSA8926 (Chondrosarcoma)
How it was run: as §1

[3] = system: CW-2 (Colorectal Carcinoma)
How it was run: as §1

[4] = system: ESO51 (Esophageal Adenocarcinoma)
How it was run: as §1

[5] = system: G-361 (Melanoma)
How it was run: as §1

[6] = system: HCC1187 (Breast Carcinoma)
How it was run: as §1

[7] = system: KMS-12-BM (Plasma Cell Myeloma)
How it was run: as §1

[8] = system: KP-3 (Pancreatic Carcinoma)
How it was run: as §1

[9] = system: KY821 (Acute Myeloid Leukemia)
How it was run: as §1

[10] = system: NCI-H2731 (Mesothelioma)
How it was run: as §1

[11] = system: NCI-H3122 (Lung Adenocarcinoma)
How it was run: as §1

[12] = system: NCI-H520 (Squamous Cell Lung Carcinoma)
How it was run: as §1

[13] = system: NCI-H526 (Small Cell Lung Carcinoma)
How it was run: as §1

[14] = system: NCI-H661 (Non-Small Cell Lung Carcinoma)
How it was run: as §1

[15] = system: NCI-H929 (Plasma Cell Myeloma)
How it was run: as §1

[16] = system: PC-3 (Prostate Carcinoma)
How it was run: as §1

[17] = system: SK-GT-2 (Gastric Carcinoma)
How it was run: as §1

[18] = system: SNU-398 (Hepatocellular Carcinoma)
How it was run: as §1

[19] = system: ST486 (Burkitt's Lymphoma)
How it was run: as §1

[20] = system: SUP-B15 (B-Lymphoblastic Leukemia)
How it was run: as §1

Compound | Bliss excess [1] | Bliss excess [2] | Bliss excess [3] | Bliss excess [4] | Bliss excess [5] | Bliss excess [6] | Bliss excess [7] | Bliss excess [8] | Bliss excess [9] | Bliss excess [10] | Bliss excess [11] | Bliss excess [12] | Bliss excess [13] | Bliss excess [14] | Bliss excess [15] | Bliss excess [16] | Bliss excess [17] | Bliss excess [18] | Bliss excess [19] | Bliss excess [20]
COc1nnc2ccc(N3CCC(c4ccc(OCCN5CCN(C)C(=O)[C@H]5C)cc4)CC3)nn12 [AZD5153] + C[C@@H]1COCCN1C2=NC(=NC(=C2)C3(CC3)[S@](=N)(=O)C)C4=C5C=CNC5=NC=C4 [AZD6738] (first compound max 1 µM, 7x7, partner max 10 µM) | 0.0751 | 0.0437 | 0.0277 | -0.0476 | -0.0191 | 0.0265 | -0.0167 | 0.0527 | -0.0196 | 0.0266 | -0.0382 | 0.07 | -0.044 | 0.0929 | -0.0817 | 0.0034 | 0.0773 | 0.0758 | -0.0692 | -0.012
COc1nnc2ccc(N3CCC(c4ccc(OCCN5CCN(C)C(=O)[C@H]5C)cc4)CC3)nn12 [AZD5153] + Cc1c2c(nn1C)CSCc1cc(n(C)n1)CSc1cc(c3ccccc3c1)OCCCc1c(C(=O)O)n(C)c3c-2c(Cl)ccc13 [AZD5991] (first compound max 1 µM, 7x7, partner max 1 µM) | -0.0393 | -0.0166 | -0.0629 | -0.0093 | 0.0501 | 0.0079 | -0.0116 | -0.0446 | 0.0104 | -0.0327 | -0.0279 | -0.0174 | 0.03 | 0.031 | -0.0142 | -0.054 | 0.0224 | -0.0431 | -0.0275 | 0.0356
COc1nnc2ccc(N3CCC(c4ccc(OCCN5CCN(C)C(=O)[C@H]5C)cc4)CC3)nn12 [AZD5153] + Cn1cnc2c(F)c(Nc3ccc(Br)cc3Cl)c(C(=O)NOCCO)cc21 [Selumetinib] (first compound max 1 µM, 7x7, partner max 10 µM) | 0.0049 | -0.0599 | 0.0215 | -0.0408 | -0.107 | -0.0067 | -0.0114 | -0.0122 | 0.0027 | -0.0445 | -0.0818 | 0.0319 | -0.0183 | -0.0027 | -0.0068 | -0.0598 | 0.0006 | -0.0298 | 0.031 | 0.101
Cc1c2c(nn1C)CSCc1cc(n(C)n1)CSc1cc(c3ccccc3c1)OCCCc1c(C(=O)O)n(C)c3c-2c(Cl)ccc13 [AZD5991] + C=CCn1c(=O)c2cnc(Nc3ccc(N4CCN(C)CC4)cc3)nc2n1-c1cccc(C(C)(C)O)n1 [AZD1775] (first compound max 1 µM, partner max 1 µM) | 0.0256 | -0.0155 | 0.04 | 0.011 | 0.0513 | -0.0342 | -0.0082 | 0.0154 | -0.0329 | -0.0336 | -0.058 | 0.0221 | -0.0063 | 0.0429 | 0.0023 | 0.0111 | -0.0033 | 0.0149 | -0.0067 | 0.0171
Cc1c2c(nn1C)CSCc1cc(n(C)n1)CSc1cc(c3ccccc3c1)OCCCc1c(C(=O)O)n(C)c3c-2c(Cl)ccc13 [AZD5991] + CC1(C)CCC(CN2CCN(c3ccc(C(=O)NS(=O)(=O)c4ccc(NCC5CCOCC5)c([N+](=O)[O-])c4)c(Oc4cnc5[nH]ccc5c4)c3)CC2)=C(c2ccc(Cl)cc2)C1 [Venetoclax] (first compound max 1 µM, 7x7, partner max 1 µM) | -0.0253 | -0.031 | 0.0005 | -0.0008 | 0.008 | 0.0026 | 0.0301 | -0.0533 | 0.0331 | -0.0519 | -0.0378 | -0.0019 | 0.243 | 0.052 | -0.033 | -0.0312 | -0.0035 | -0.0013 | 0.0088 | 0.0213
Cc1c2c(nn1C)CSCc1cc(n(C)n1)CSc1cc(c3ccccc3c1)OCCCc1c(C(=O)O)n(C)c3c-2c(Cl)ccc13 [AZD5991] + CCN(CCO)CCCOc1ccc2c(Nc3cc(CC(=O)Nc4cccc(F)c4)[nH]n3)ncnc2c1 [AZD2811] (first compound max 1 µM, 7x7, partner max 1 µM) | 0.119 | 0.0305 | 0.0059 | 0.0031 | 0.0481 | -0.0292 | 0.0257 | -0.0026 | 0.0053 | -0.0023 | 0.0531 | 0.0632 | 0.123 | 0.0328 | 0.0409 | -0.0328 | 0.039 | 0.0359 | -0.0575 | 0.0125
Cc1c2c(nn1C)CSCc1cc(n(C)n1)CSc1cc(c3ccccc3c1)OCCCc1c(C(=O)O)n(C)c3c-2c(Cl)ccc13 [AZD5991] + C[C@@H]1COCCN1C2=NC(=NC(=C2)C3(CC3)[S@](=N)(=O)C)C4=C5C=CNC5=NC=C4 [AZD6738] (first compound max 1 µM, 7x7, partner max 10 µM) | 0.0148 | -0.0081 | 0.0514 | 0.0124 | 0.0356 | 0.0756 | -0.009 | 0.0405 | -0.0356 | -0.0074 | 0.056 | -0.0091 | 0.0188 | 0.0528 | -0.0296 | 0.035 | 0.026 | 0.0504 | 0.0248 | 0.0181
Cc1c2c(nn1C)CSCc1cc(n(C)n1)CSc1cc(c3ccccc3c1)OCCCc1c(C(=O)O)n(C)c3c-2c(Cl)ccc13 [AZD5991] + C[C@@H](Nc1cc(F)cc(F)c1)c1cc(C(=O)N(C)C)cc2c(=O)cc(N3CCOCC3)oc12 [AZD8186] (first compound max 1 µM, 7x7, partner max 3 µM) | -0.0043 | 0.091 | 0.0051 | -0.0134 | -0.0082 | -0.0176 | 0.0019 | -0.0351 | 0.0034 | -0.0626 | -0.0639 | -0.0474 | 0.0192 | 0.0181 | -0.0218 | 0.0051 | 0.015 | -0.0004 | -0.0659 | -0.0091
Cc1c2c(nn1C)CSCc1cc(n(C)n1)CSc1cc(c3ccccc3c1)OCCCc1c(C(=O)O)n(C)c3c-2c(Cl)ccc13 [AZD5991] + Cc1cc2ncnn2cc1Nc1ncc2c(n1)n(C1CCOCC1)c(=O)n2C [AZD7648] (first compound max 1 µM, 7x7, partner max 10 µM) | -0.0125 | -0.0376 | 0.0242 | -0.0216 | 0.0031 | -0.0299 | -0.0033 | -0.0462 | -0.0302 | -0.0637 | -0.0563 | -0.0453 | -0.0042 | -0.0546 | 0.0091 | -0.135 | 0.0164 | -0.0125 | -0.053 | 0.0099
Cc1c2c(nn1C)CSCc1cc(n(C)n1)CSc1cc(c3ccccc3c1)OCCCc1c(C(=O)O)n(C)c3c-2c(Cl)ccc13 [AZD5991] + Cn1cnc2c(F)c(Nc3ccc(Br)cc3Cl)c(C(=O)NOCCO)cc21 [Selumetinib] (first compound max 1 µM, 7x7, partner max 3 µM) | 0.0319 | -0.0772 | 0.0226 | 0.0896 | 0.0083 | -0.0139 | -0.0124 | -0.0378 | 0.0044 | -0.0354 | -0.0255 | -0.0116 | 0.0123 | -0.0169 | 0.0275 | -0.0029 | 0.016 | 0.0354 | 0.07 | 0.0806
C[C@@H]1COCCN1c1cc(C2([S@](C)(=N)=O)CC2)nc(-c2ccnc3[nH]ccc23)n1 [AZD6738] + O=C(c1cc(Cc2n[nH]c(=O)c3ccccc23)ccc1F)N1CCN(C(=O)C2CC2)CC1 [Olaparib] (first compound max 10 µM, 7x7, partner max 10 µM) | 0.0004 | 0.01 | 0.0008 | -0.102 | -0.0052 | 0.0586 | -0.0189 | 0.0143 | -0.0521 | -0.0266 | 0.0446 | 0.044 | -0.0072 | 0.039 | -0.0942 | -0.0095 | 0.0148 | 0.0108 | -0.0026 | -0.0608
Cc1cc2ncnn2cc1Nc1ncc2c(n1)n(C1CCOCC1)c(=O)n2C [AZD7648] + C=CCn1c(=O)c2cnc(Nc3ccc(N4CCN(C)CC4)cc3)nc2n1-c1cccc(C(C)(C)O)n1 [AZD1775] (first compound max 10 µM, partner max 1 µM) | -0.0235 | 0.0382 | 0.0419 | -0.0433 | 0.0081 | 0.0302 | 0.0085 | 0.0283 | -0.0098 | -0.0225 | -0.0402 | 0.004 | 0.013 | -0.0135 | -0.0572 | -0.0415 | -0.047 | 0.0128 | -0.0316 | 0.0174
Cc1cc2ncnn2cc1Nc1ncc2c(n1)n(C1CCOCC1)c(=O)n2C [AZD7648] + CCN(CCO)CCCOc1ccc2c(Nc3cc(CC(=O)Nc4cccc(F)c4)[nH]n3)ncnc2c1 [AZD2811] (first compound max 10 µM, 7x7, partner max 1 µM) | 0.0059 | -0.0331 | -0.0089 | -0.0098 | 0.0453 | -0.0446 | 0.0266 | 0.0126 | 0.139 | -0.0077 | 0.0558 | 0.0195 | 0.0568 | 0.0564 | -0.0223 | -0.0346 | 0.0137 | 0.013 | -0.0697 | -0.0667
Cc1cc2ncnn2cc1Nc1ncc2c(n1)n(C1CCOCC1)c(=O)n2C [AZD7648] + CN(C)CCCOc1ccc(-c2ccc3ncc4c(c3c2)n(C2CCOCC2)c(=O)n4C)cn1 [AZD0156] (first compound max 10 µM, 7x7, partner max 1 µM) | -0.0003 | 0.0091 | -0.0088 | -0.0151 | 0.0032 | -0.0086 | 0.0032 | 0.0074 | 0.0429 | -0.0326 | -0.006 | 0.0833 | 0.0429 | 0.0202 | -0.0727 | 0.0109 | -0.0011 | -0.0273 | -0.0071 | -0.0084
Cc1cc2ncnn2cc1Nc1ncc2c(n1)n(C1CCOCC1)c(=O)n2C [AZD7648] + C[C@@H]1COCCN1C2=NC(=NC(=C2)C3(CC3)[S@](=N)(=O)C)C4=C5C=CNC5=NC=C4 [AZD6738] (first compound max 10 µM, 7x7, partner max 10 µM) | -0.0223 | -0.0325 | 0.0297 | 0.0153 | 0.0105 | 0.0005 | 0.0125 | 0.0351 | 0.0008 | 0.055 | 0.038 | -0.0108 | 0.0174 | 0.0522 | -0.0268 | -0.0161 | -0.0034 | -0.0097 | 0.0077 | -0.0159
